Laboratory results reported in patent US8354415B2, “Thienopyrimidine compounds and compositions” (Vernalis (R&D) Ltd., priority 2007, dated 2013).

These compounds were tested against T1, human adenosine A2B receptors (Homo sapiens, UniProt P29275) (assay: FLIPR calcium flux assay, adenosine A2B receptor expressing cells). Settings: expressed human adenosine A2B receptors in mammalian cell lines, activity range.
T1 construct: expressed in transfected cells
T1 sequence (P29275 1-332): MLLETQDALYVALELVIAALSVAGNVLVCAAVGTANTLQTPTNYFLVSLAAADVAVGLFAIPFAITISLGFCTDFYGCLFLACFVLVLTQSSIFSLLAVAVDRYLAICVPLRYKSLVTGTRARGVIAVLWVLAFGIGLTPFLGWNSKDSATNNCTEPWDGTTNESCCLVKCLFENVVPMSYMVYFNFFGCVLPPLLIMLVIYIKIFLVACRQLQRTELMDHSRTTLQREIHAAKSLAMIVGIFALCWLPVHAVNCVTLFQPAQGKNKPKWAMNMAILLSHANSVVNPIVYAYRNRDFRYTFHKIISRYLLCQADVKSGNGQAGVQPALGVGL
Assay type: cell-based
Protocol: The use of a Fluorometric Imaging Plate Reader (FLIPR) to measure calcium flux in Adenosine-receptor expressing cells is a well-established technique. In this assay calcium flux is triggered by receptor activation and measured through the fluorescence of an incorporated calcium-sensitive dye. The potencies shown were determined using expressed human adenosine A2B receptors in mammalian cell lines. Selectivity values were obtained by using mammalian cell lines expressing the human adenosine A1, A2A, and A3 receptors. Compound potency was determined from dose response curves and are reported as IC50 values.

IC50	SMILES
> 500 nM	CC(Nc1nc(C(=O)N2CCCC2)c2sccc2n1)c1cccnc1 (racemic) [Example 7, [2-(1-Pyridin-3-yl-ethylamino)-thieno[3,2-d]pyrimidin-4-yl]-pyrrolidin-1-yl-methanone]
> 500 nM	CCNC(=O)c1nc(NCc2cccnc2)nc2ccsc12 [Example 8, 2-[(Pyridin-3-ylmethyl)-amino]-thieno[3,2-d]pyrimidine-4-carboxylic acid ethylamide]
< 500 nM	O=C(c1nc(NCc2cccnc2)nc2ccsc12)N1CCCC1 [Example 9, {2-[(Pyridin-3-ylmethyl)-amino]-thieno[3,2-d]pyrimidin-4-yl}-pyrrolidin-1-yl-methanone]
< 500 nM	CC(C)NC(=O)c1nc(NCc2cccnc2)nc2ccsc12 [Example 11, 2-[(Pyridin-3-ylmethyl)-amino]-thieno[3,2-d]pyrimidine-4-carboxylic acid isopropylamide]
> 500 nM	CNC(=O)c1nc(NCc2cccnc2)nc2ccsc12 [Example 13, 2-[(Pyridin-3-ylmethyl)-amino]-thieno[3,2-d]pyrimidine-4-carboxylic acid methylamide]
< 500 nM	O=C(NC1CCCCC1)c1nc(NCc2cccnc2)nc2ccsc12 [Example 15, 2-[(Pyridin-3-ylmethyl)-amino]-thieno[3,2-d]pyrimidine-4-carboxylic acid cyclohexylamide]
> 500 nM	O=C(NCc1cccnc1)c1nc(NCc2cccnc2)nc2ccsc12 [Example 18, 2-[(Pyridin-3-ylmethyl)-amino]-thieno[3,2-d]pyrimidine-4-carboxylic acid (pyridin-3-ylmethyl)-amide]
< 500 nM	CC(Nc1nc(C(=O)NC2CC2)c2sccc2n1)c1cccnc1 (centres unmarked) [Example 20, 2-(1-Pyridin-3-yl-ethylamino)-thieno[3,2-d]pyrimidine-4-carboxylic acid cyclopropylamide]

Further lines, the compound ahead of its results:

SMILES	IC50
O=C(NC1CC1)c1nc(NCc2cccnc2)nc2ccsc12 [Example 10, 2-[(Pyridin-3-ylmethyl)-amino]-thieno[3,2-d]pyrimidine-4-carboxylic acid cyclopropylamide]	> 500 nM
O=C(NC1CCCC1)c1nc(NCc2cccnc2)nc2ccsc12 [Example 12, 2-[(Pyridin-3-ylmethyl)-amino]thieno[3,2-d]pyrimidine-4-carboxylic acid cyclopentylamide]	> 500 nM
O=C(NCCc1ccccc1)c1nc(NCc2cccnc2)nc2ccsc12 [Example 14, 2-[(Pyridin-3-ylmethyl)-amino]-thieno[3,2-d]pyrimidine-4-carboxylic acid phenethyl-amide]	< 500 nM
O=C(NCc1ccccc1)c1nc(NCc2cccnc2)nc2ccsc12 [Example 16, 2-[(Pyridin-3-ylmethyl)-amino]-thieno[3,2-d]pyrimidine-4-carboxylic acid benzylamide]	< 500 nM
COCCNC(=O)c1nc(NCc2cccnc2)nc2ccsc12 [Example 17, 2-[(Pyridin-3-ylmethyl)-amino]-thieno[3,2-d]pyrimidine-4-carboxylic acid (2-methoxy-ethyl)-amide]	> 500 nM
O=C(c1nc(NCc2cccnc2)nc2ccsc12)N1CCCCC1 [Example 19, Piperidin-1-yl-{2-[(pyridin-3-ylmethyl)-amino]-thieno[3,2-d]pyrimidin-4-yl}-methanone]	> 500 nM
Nc1nc(C(=O)NC2CC2)c2sccc2n1 [Example 21, 2-Amino-thieno[3,2-d]pyrimidine-4-carboxylic acid cyclopropylamide]	> 500 nM
C[C@@H](Nc1nc(C(=O)N2CCCC2)c2sccc2n1)c1cccnc1 [Example 22]	> 500 nM
C[C@H](Nc1nc(C(=O)N2CCCC2)c2sccc2n1)c1cccnc1 [Example 23, (S)-[2-(1-Pyridin-3-yl-ethylamino)-thieno[3,2-d]pyrimidin-4-yl]-pyrrolidin-1-yl-methanone]	< 500 nM
